The results in this text go back to patent publication US11168102B1, “Bicyclic heteroaryl compounds and uses thereof” (Revolution Medicines, Inc., priority 2019, dated 2021).

Molecules are shown by their SMILES. A value given as a limit tells only on which side of the number the result lay.

A word on the IC50: it is the midpoint of a concentration-inhibition curve.

For the first test, the system named is cellular pERK in PC-9 cells (EGFR Ex19Del). In words: Potency assay: pERK (AlphaLISA SureFire Ultra p-ERK1/2) in PC-9 cells. The class given is cell-based. The settings on record: Homo sapiens, PC-9, 1 h, PC-9 cells (EGFR Ex19Del), 1 hour incubation, AlphaLISA SureFire Ultra p-ERK1/2; read-out: SOS1 pERK IC50.
For the molecule `CC(=O)N1CCC(C#N)(c2cc3c(N[C@H](C)c4cccc(C(F)F)c4F)ncnc3n(C)c2=O)CC1` [Example 36, 1-acetyl-4-(4-{[(1R)-1-[3-(difluoromethyl)-2-fluorophenyl]ethyl]amino}-8-methyl-7-oxo-7H,8H-pyrido[2,3-d]pyrimidin-6-yl)piperidine-4-carbonitrile], the IC50 worked out at 28.1 nM.
Still for that read-out and setting: under `C[C@@H](Nc1ncnc2c1cc(C1(C#N)CCS(=O)(=O)CC1)c(=O)n2C)c1cccc(C(F)F)c1F` [Example 36-1] stands 11.6 nM; under `CC(=O)N1CC(C#N)(c2cc3c(N[C@H](C)c4cccc(C(F)F)c4F)ncnc3n(C)c2=O)C1` [Example 36-3], 181 nM.
As to `C[C@@H](Nc1ncnc2c1cc(C1(C#N)CCN(S(C)(=O)=O)C1)c(=O)n2C)c1cccc(C(F)F)c1F` (stereo partly drawn) [Example 36-4], the IC50 was found to be 91 nM.
The same measure, in the same setting: under `CC(=O)N1CCC(C#N)(c2cc3c(N[C@H](C)c4cccc(C(F)F)c4F)ncnc3n(C)c2=O)C1` (stereo partly drawn) [Example 36-5] stands 124 nM.
On to `C[C@@H](Nc1ncnc2c1cc(C1(C#N)CC3(C1)CS(=O)(=O)C3)c(=O)n2C)c1cccc(C(F)F)c1F` [Example 36-6], for which the IC50 is 33.3 nM.
In the case of `C[C@@H](Nc1ncnc2c1cc(C1(C#N)CN(S(C)(=O)=O)C1)c(=O)n2C)c1cccc(C(F)F)c1F` [Example 36-7], the IC50 amounted to 772 nM.
As for `C[C@@H](Nc1ncnc2c1cc(C1(C#N)CCC3(CC1)CS(=O)(=O)C3)c(=O)n2C)c1cccc(C(F)F)c1F` [Example 36-8], the IC50 is 38.8 nM.
As for `CC(=O)N1CCCC(C#N)(c2cc3c(N[C@H](C)c4cccc(C(F)F)c4F)ncnc3n(C)c2=O)CC1` (stereo partly drawn) [Example 36-9], the IC50 was 86.9 nM.
Consider `CC(=O)N1CC[C@](C#N)(c2cc3c(N[C@H](C)c4cccc(C(F)F)c4F)ncnc3n(C)c2=O)C1` [Example 36-10], for which the IC50 was found to be 44 nM.
The same measure, in the same setting: under `CC(=O)N1CC[C@@](C#N)(c2cc3c(N[C@H](C)c4cccc(C(F)F)c4F)ncnc3n(C)c2=O)C1` [Example 36-11] stands 268 nM; under `C[C@@H](Nc1ncnc2c1cc(C1(C)CCS(=O)(=O)CC1)c(=O)n2C)c1cccc(C(F)F)c1F` [Example 37, 4-(4-{[(1R)-1-[3-(difluoromethyl)-2-fluorophenyl]ethyl]amino}-8-methyl-7-oxo-7H,8H-pyrido[2,3-d]pyrimidin-6-yl)-4-methyl-1λ^6-thiane-1,1-dione], 49.9 nM; under `CC(=O)N1CCC(c2cc3c(N[C@H](C)c4cccc(C(F)F)c4C(F)F)ncnc3n(C)c2=O)CC1` [Example 38, 6-(1-acetylpiperidin-4-yl)-4-{[(1R)-1-[2,3-bis(difluoromethyl)phenyl]ethyl]amino}-8-methyl-7H,8H-pyrido[2,3-d]pyrimidin-7-one], 137 nM.
Take `CC(=O)N1CCC(c2cc3c(N[C@H](C)c4cccc(C(F)F)c4CF)ncnc3n(C)c2=O)CC1` [Example 39, 6-(1-acetylpiperidin-4-yl)-4-{[(1R)-1-[3-(difluoromethyl)-2-(fluoromethyl)phenyl]ethyl]amino}-8-methyl-7H,8H-pyrido[2,3-d]pyrimidin-7-one]: the IC50 worked out at 1560 nM.
Same read-out and setting: the figure for `C[C@@H](Nc1ncnc2c1cc(C1=CCS(=O)(=O)CC1)c(=O)n2C)c1cccc(C(F)(F)C#N)c1` [Example 40, 2-{3-[(1R)-1-{[6-(1,1-dioxo-3,6-dihydro-2H-1λ^6-thiopyran-4-yl)-8-methyl-7-oxo-7H,8H-pyrido[2,3-d]pyrimidin-4-yl]amino}ethyl]phenyl}-2,2-difluoroacetonitrile] is 1370 nM; for `C[C@@H](Nc1ncnc2c1cc(C1=CCS(=O)(=O)CC1)c(=O)n2C)c1cccc(C(F)(F)C#N)c1F` [Example 41, 2-{3-[(1R)-1-{[6-(1,1-dioxo-3,6-dihydro-2H-1λ^6-thiopyran-4-yl)-8-methyl-7-oxo-7H,8H-pyrido[2,3-d]pyrimidin-4-yl]amino}ethyl]-2-fluorophenyl}-2,2-difluoroacetonitrile] it is 4480 nM.
Same read-out and setting: under `C[C@H](Nc1ncnc2c1cc(C1=CCS(=O)(=O)CC1)c(=O)n2C)c1cccc(C(F)(F)C#N)c1F` [Example 41-1] stands greater than 10000 nM.
Regarding `C[C@@H](Nc1ncnc2c1cc(C1=CCS(=O)(=O)CC1)c(=O)n2C)c1cccc(C(F)(F)CN)c1F` [Example 42, 4-(4-{[(1R)-1-[3-(2-amino-1,1-difluoroethyl)-2-fluorophenyl]ethyl]amino}-8-methyl-7-oxo-7H,8H-pyrido[2,3-d]pyrimidin-6-yl)-3,6-dihydro-2H-1λ^6-thiopyran-1,1-dione], the IC50 came to 242 nM.
`CC(=O)N1CCC(c2cc3c(N[C@H](C)c4cc(C(F)F)cc(C5(F)CNC5)c4)ncnc3n(C)c2=O)CC1` [Example 43, 6-(1-acetyl-4-piperidyl)-4-[[(1R)-1-[3-(difluoromethyl)-5-(3-fluoroazetidin-3-yl)phenyl]ethyl]amino]-8-methyl-pyrido[2,3-d]pyrimidin-7-one]: the IC50 is greater than 7290 nM.
Same read-out and setting: under `CC(=O)N1CCC(c2cc3c(N[C@H](C)c4cc(C(F)(F)F)cc(N)n4)ncnc3n(C)c2=O)CC1` [Example 44, 6-(1-acetyl-4-piperidyl)-4-[1-[6-amino-4-(trifluoromethyl)-2-pyridyl]ethylamino]-8-methyl-pyrido[2,3-d]pyrimidin-7-one] stands 179 nM; under `CC(=O)N1CCC(c2cc3c(N[C@H](C)c4cc(C(F)F)c5cc[nH]c5c4)ncnc3n(C)c2=O)CC1` [Example 48, 6-(1-acetyl-4-piperidyl)-4-[[(1R)-1-[4-(difluoromethyl)-1H-indol-6-yl]ethyl]amino]-8-methyl-pyrido[2,3-d]pyrimidin-7-one], 1520 nM.
The same measure, in the same setting: under `COn1c(=O)c(C2CCS(=O)(=O)CC2)cc2c(N[C@H](C)c3cccc(C(F)F)c3F)ncnc21` [Example 53, 4-(4-{[(1R)-1-[3-(difluoromethyl)-2-fluorophenyl]ethyl]amino}-8-methoxy-7-oxo-7H,8H-pyrido[2,3-d]pyrimidin-6-yl)-1λ^6-thiane-1,1-dione] stands 36.7 nM.
The same measure, in the same setting: the figure for `CC(=O)N1CCC(c2cc3c(N[C@H](C)c4cccc(C(F)(F)C5CN(C6CC6)CCO5)c4F)ncnc3n(C)c2=O)CC1` (stereo partly drawn) [Example 55, 6-(1-acetyl-4-piperidyl)-4-[[(1R)-1-[3-[(4-cyclopropylmorpholin-2-yl)-difluoro-methyl]-2-fluoro-phenyl]ethyl]amino]-8-methyl-pyrido[2,3-d]pyrimidin-7-one] is 109 nM; for `C[C@@H](Nc1ncnc2c1cc(C1(F)CCS(=O)(=NC3CC3)CC1)c(=O)n2C)c1cccc(C(F)F)c1F` (stereo partly drawn) [Example 56, 6-((1R,4r)-1-(cyclopropylimino)-4-fluoro-1-oxidohexahydro-1λ^6-thiopyran-4-yl)-4-(((R)-1-(3-(difluoromethyl)-2-fluorophenyl)ethyl)amino)-8-methylpyrido[2,3-d]pyrimidin-7(8H)-one] it is 57.2 nM.
Consider `C[C@@H](Nc1ncnc2c1cc(C1(F)CCS(=O)(=NC3CC3)CC1)c(=O)n2C)c1cccc2c1OCC2(F)F` (stereo partly drawn) [Example 56-4], for which the IC50 turned out to be 50 nM.
Still for that read-out and setting: the figure for `C[C@@H](Nc1ncnc2c1cc(C1CCS(=O)(=NC3COC3)CC1)c(=O)n2C)c1cccc(C(F)F)c1F` (stereo partly drawn) [Example 60, 4-[[(1R)-1-[3-(difluoromethyl)-2-fluoro-phenyl]ethyl]amino]-8-methyl-6-[1-(oxetan-3-ylimino)-1-oxo-thian-4-yl]pyrido[2,3-d]pyrimidin-7-one] is 23.1 nM; for `COc1ccc(COC2(c3cc4c(N[C@H](C)c5cccc(C(F)F)c5F)ncnc4n(C)c3=O)CC2)cc1` [Example 61, 4-[[(1R)-1-[3-(difluoromethyl)-2-fluoro-phenyl]ethyl]amino]-6-[1-[(4-methoxyphenyl)methoxy]cyclopropyl]-8-methyl-pyrido[2,3-d]pyrimidin-7-one] it is 647 nM.

Staying with this test, now noted: Homo sapiens, PC-9, 1 h, read-out: SOS1 pERK IC50.
On to `C[C@@H](Nc1ncnc2c1cc(C1(C#N)CCN(C)CC1)c(=O)n2C)c1cccc(C(F)F)c1F` [Example 36-2], for which the IC50 came to 63 nM.
On the same count and under the same terms, the figure for `C[C@@H](Nc1ncnc2c1cc(C1(C#N)CCN(C3COC3)CC1)c(=O)n2C)c1cccc(C(F)F)c1F` [Example 36-16] is 222 nM.

Staying with this test, now noted: PC-9 cells (EGFR Ex19Del), 1 hour incubation, AlphaLISA SureFire Ultra p-ERK1/2; read-out: SOS1 pERK IC50.
For `C[C@@H](Nc1ncnc2c1cc(C1(C#N)CCP(C)(=O)CC1)c(=O)n2C)c1cccc(C(F)F)c1F` (stereo partly drawn) [Example 36-12], the IC50 amounted to 448 nM.
`C[C@@H](Nc1ncnc2c1cc(C1(C#N)CCP(C)(=O)CC1)c(=O)n2C)c1cccc(C(F)F)c1F` (stereo partly drawn) [Example 36-13]: the IC50 was determined as 81.2 nM.
On the same count and under the same terms, the figure for `C[C@@H](Nc1ncnc2c1cc(C1(C#N)CCS(=O)(=O)C1)c(=O)n2C)c1cccc(C(F)F)c1F` (stereo partly drawn) [Example 36-14] is 207 nM; for `C[C@@H](Nc1ncnc2c1cc(C1(C#N)CCS(=O)(=O)C1)c(=O)n2C)c1cccc(C(F)F)c1F` (stereo partly drawn) [Example 36-15] it is 58.9 nM; for `CN=S1(=O)CCC(F)(c2cc3c(N[C@H](C)c4cccc(C(F)F)c4F)ncnc3n(C)c2=O)CC1` (stereo partly drawn) [Example 52, 4-(((R)-1-(3-(difluoromethyl)-2-fluorophenyl)ethyl)amino)-6-((1R,4r)-4-fluoro-1-(methylimino)-1-oxidohexahydro-1λ-thiopyran-4-yl)-8-methylpyrido[2,3-d]pyrimidin-7(8H)-one] it is 70.6 nM.
Same read-out and setting: under `C[C@@H](Nc1ncnc2c1cc(C1(F)CCS(=O)(=NC3CC3)CC1)c(=O)n2C)c1cccc2c1OCC2(F)F` (stereo partly drawn) [Example 56-5] stands 44.1 nM; under `C[C@@H](Nc1ncnc2c1cc(C1(C#N)CCS(=O)(=NC3CC3)CC1)c(=O)n2C)c1cccc(C(F)F)c1F` (stereo partly drawn) [Example 59, (1S,4s)-1-(cyclopropylimino)-4-(4-(((R)-1-(3-(difluoromethyl)-2-fluorophenyl)ethyl)amino)-8-methyl-7-oxo-7,8-dihydropyrido[2,3-d]pyrimidin-6-yl)hexahydro-1λ^6-thiopyran-4-carbonitrile 1-oxide], 28.8 nM.
